Reference: patent publication US5602277A, “Substituted benzene derivatives useful as neuraminidase inhibitors” (priority 1995, dated 1997)
pIC50: −log10 of the molar value. Where a name gives a salt, the structure may show the parent alone. Read-outs that look alike come from different tables or passages of the source.

Key:
[1] = test system: influenza virus neuraminidase; format: biochemical; conditions: substrate 75 μM, pH 6.5, 5 min at 37° C.
HA = conditions: cited from earlier work
[2] = cited from earlier work

In the case of N=C(N)Nc1cc(NC(=N)N)cc(C(=O)O)c1 [Example 49, 3,5-Bis-[(aminoiminomethyl)amino]benzoic acid hydrochloride, solvate with ethanol (10:15:2)], the pIC50 [1] was 2.82.

For N=C(N)Nc1cccc(C(=O)O)c1 [Example 17, 3-Guanidinobenzoic acid hydrochloride (2:1)], the pIC50 [1] was 2.30.

In the case of CC(=O)Nc1ccc(C(=O)O)cc1 [Example 4, 4-Acetylaminobenzoic acid], the “% Inhibition at 7 nM” value [1] was 39%.

With CS(=O)(=O)Nc1ccc(C(=O)O)cc1 [Example 16, 4-[(Methylsulfonyl)amino]benzoic acid] the “% Inhibition at 7 nM” value [1] was 34%.

For CC(=O)Nc1ccc(C(=O)O)cc1CO.[Na+].[OH-] [Example 31, 4-Acetylamino-3-hydroxymethylbenzoic acid, complex with NaOH [5:3]], the “% Inhibition at 7 nM” value [1] was 31%.

For N#CNc1cccc(C(=O)O)c1 [Example 21, 3-Cyanoaminobenzoic acid hydrate (5:1)], the pIC50 [1] was 2.40.

Compound “3-[(Aminoiminomethyl)amino]-4-[(methylamino)carbonyl]benzoic acid hydrochloride, complex with water and methanol (4:4:4:1 and 5:5:5:1) [Example 53]” has a pIC50 [1] of 5.30.

For CC(=O)Nc1ccc(P(=O)(O)O)cc1 [Example 7, 4-Acetylaminophenylphosphonic acid], the “% Inhibition at 7 nM” value [1] was 32%.

For CC(=O)Nc1ccc(C(=O)O)cc1N [Example 37, 4-Acetylamino-3-aminobenzoic acid hydrochloride (2:1)], the “% Inhibition at 7 nM” value [1] was 28% and the pIC50 [1] was 1.85.

With N=C(N)Nc1cc(C(=O)O)ccc1O [Example 47, 3-[(Aminoiminomethyl)amino]-4-hydroxybenzoic acid hydrochloride (1:1)] the “% Inhibition at 7 nM” value [1] was 33%.

CC(C)C(=O)Nc1ccc(C(=O)O)cc1NC(=N)N [Example 40, 3-[(Aminoiminomethyl)amino]-4-(2-methylpropionylamino)benzoic acid hydrate [2:1]] gave a pIC50 [1] of 3.00.

N=C(N)Nc1cc(C=NO)cc(C(=O)O)c1 [Example 51, 3-[(Aminoiminomethyl)amino]-5-[(N-hydroxylimino)methyl]benzoic acid hydrate (4:3)] gave a pIC50 [1] of 3.10.

In the case of N#CN=C(N)Nc1cccc(C(=O)O)c1 [Example 18, 3-[Amino(cyanoimino)methyl]aminobenzoic acid hydrate (4:1)], the “% Inhibition at 7 nM” value [1] was 68%.

In the case of COc1ccc(C(=O)O)cc1NC(=N)N [Example 46, 3-[(Aminoiminomethyl)amino]-4-methoxybenzoic acid hydrochloride (1:1)], the “% Inhibition at 7 nM” value [1] was 46%.

For N=C(N)Cc1cccc(C(=O)O)c1 [Example 23, 3-(2-Amino-2-imino)ethylbenzoic acid complex with water (5:1)], the “% Inhibition” value ([1]; compound @ 3.5 mM) was 22%.

In the case of CC(=O)Nc1ccc(C(=O)O)cc1CC(O)CO (single isomer, unassigned; isomer a) [Example 35, 4-Acetylamino-3-(2',3'-dihydroxypropyl)benzoic acid, solvate with water [5:1] (Isomer A)], the “% Inhibition at 7 nM” value [1] was 25% and the pIC50 [1] was 1.70.

Work on CC(=O)Nc1ccc(C(=O)O)cc1C=NO [Example 42, 4-Acetylamino-3-[(hydroxylimino)methyl]benzoic acid hydrate (4:1)] yielded a pIC50 [1] of 2.26.

Compound N=C(N)Nc1cc(N)cc(C(=O)O)c1 [Example 50, Sodium 3-amino-5-[(aminoimino)methyl]aminobenzoate hydrate] has a pIC50 [1] of 2.70.

With CC(=O)Nc1ccc(C(=O)O)cc1CC(O)CO (single isomer, unassigned; isomer b) [Example 36, 4-Acetylamino-3-(2',3'-dihydroxypropyl)benzoic acid, solvate with water [4:3](Isomer B)] the “% Inhibition at 7 nM” value [1] was 35%.

For N=C(N)NC(=N)Nc1ccccc1 [Example 3, 1-Phenylbiguanide], the “% Inhibition at 7 nM” value [1] was 75% and the pIC50 [1] was 2.26.

For O=C(O)c1ccc(NC(=O)C(F)(F)F)cc1 [Example 9, 4-(Trifluoroacetamido)benzoic acid], the “% Inhibition” value ([1]; compound @ 3.3 mM) was 56%.

Work on CC(=S)Nc1ccc(C(=O)O)cc1 [Example 10, 4-Thioacetamidobenzoic acid] yielded a pIC50 [1] of 3.00.

For CC(=O)N[C@H]1[C@H]([C@H](O)[C@H](O)CO)OC(C(=O)O)=C[C@@H]1O [DANA, 2-deoxy-2,3-didehydro-N-acetylneuraminic acid], the “inhibition of HA in vitro” value (HA) is listed as “inhibit” and the activity in vivo [2] is listed as “inactive”.

With CC(=O)Nc1ccc(S(=O)(=O)O)cc1 [Example 6, 4-Acetylaminobenzenesulfonic acid hydrate (4:1)] the “% Inhibition at 7 nM” value [1] was 30%.

CS(=O)(=O)Nc1ccc(C(=O)O)cc1NC(=N)N [Example 43, 3-[(Aminoiminomethyl)amino]-4-[(methylsulfonyl)amino]benzoic acid, solvate with water (2:1)] gave a pIC50 [1] of 4.00.

For CNC(=O)c1ccc(C(=O)O)cc1 [Example 27, 4-(Methylaminocarbonyl)benzoic acid], the “% Inhibition at 7 nM” value [1] was 27%.

For N=C(N)Nc1ccccc1 [Example 1, Phenylguanidine carbonate hydrate (2:1:1)], the “% Inhibition at 7 nM” value [1] was 44%.

CC(C)OC(C)C.CS(=O)(=O)Nc1c(CO)cc(C(=O)O)cc1NC(=N)N [Example 52, 3-(Aminoiminomethyl)amino-5-hydroxymethyl-4-(methylsulfonyl)aminobenzoic acid hydrate complex with diisopropyl ether (10:10:1)] showed a pIC50 [1] of 2.70.

In the case of CC(=O)Nc1ccc(C(=O)O)cc1CCO [Example 33, β-(2-N-Acetylamino-5-carboxyphenyl)ethanol], the “% Inhibition at 7 nM” value [1] was 42%.

For CC(=O)Nc1ccc(CC(=O)O)cc1 [Example 26, 4-(Acetamido)phenylacetic acid], the “% Inhibition at 7 nM” value [1] was 15%.
